Test results taken from paper PMC3879368, “Characterisation of a Multi-ligand Binding Chemoreceptor CcmL (Tlp3) of Campylobacter jejuni” (PLoS Pathogens, 2014).
Values joined by “and” are separate entries in the source; they are usually repeats but may differ in a detail not shown here. Identical values can stand only once. “Also recorded” adds a separate entry of the source. Like-named read-outs stand apart in the source and are kept apart here.

How the values were obtained:
[1] = test system: recombinant Cj1564 (Tlp3) periplasmic sensory domain peptide; test: 1H STD-NMR analysis, single ligand and competition; type: binding, Campylobacter jejuni; settings: for STD-NMR binding to Tlp3 (in words): ligand alone with Tlp3; for Binding preference in competition STD experiments: two ligands together with Tlp3
Experimental: Recombinant Tlp3 (1 mg/mL, 100 µL) dissolved in D2O (99.99% D Cambridge Isotopes) containing 50 mM NaCl and 50 mM KH2PO4 and added to various ligands (1 mg/mL, 150 µL ∼150 mole equivalents) also dissolved in D2O (99.99% D Cambridge Isotopes) containing 50 mM NaCl and 50 mM KH2PO4 to give a total volume of 250 µL in a 3 mm NMR tube for NMR analysis. Control samples were prepared in an identical manner without Tlp3 added. All NMR experiments were performed on a Bruker Avance 600 MHz spectrometer, equipped with a 5-mm TXI probe with triple axis gradients at 283 K without sample spinning. ^1H NMR spectra were acquired with 32 scans, a 2 s relaxation delay over a spectral width of 6000 Hz. Solvent suppression of the residual HDO peak was achieved by continuous low-power presaturation pulse during the relaxation delay. […] A 100 µs delay between each soft pulse was applied, resulting in a total saturation time of 2 s and 2 K scans.
Data were obtained with an interspersed acquisition of pseudo-two-dimensional on-resonance and off-resonance spectra in order to minimize the effects of temperature and magnet instability. On- and off-resonance spectra were processed separately, and the final STD-NMR spectrum was obtained by subtracting the individual on- and off-resonance spectra, resulting in less subtraction artefacts. Relative STD effects were calculated according to the equation ASTD = (I0−Isat)/I0 = ISTD/I0 by comparing the intensity of the signals in the STD-NMR spectrum (ISTD) with signal intensities of a reference spectrum (I0). The STD signal with the highest intensity was set to 100% and other STD signals were calculated accordingly. A spin lock field of 10 ms was applied to remove unwanted background protein signals. […] Control STD-NMR experiments were performed using an identical experimental setup and the same ligand concentration but in the absence of the protein.

[2] = test system: recombinant Tlp3 periplasmic sensory domain peptide; test: 96-well plate binding assay; parameters: species or system Campylobacter jejuni; key: Y: positive binding significantly above background; N: binding not significantly above background; settings: non-covalent presentation
Experimental: (§1) The array assay presents the compounds covalently bound to an epoxide group resulting in a high probability of a single molecular orientation. The plate assay relies on non-covalent charge and hydrophobic/hydrophilic interactions for presentation of the molecules offering a different presentation to the array.
(§2) Amino acid and small molecule arrays and plate based binding assays were performed as previously described.. […] SPR experiments were performed using a Biacore T100 biosensor system (GE- healthcare) at 25°C in 1× PBS pH 7.2 at a flow rate of 30 µl/min. […] Amino acids were prepared in 1 × PBS pH 7.2 and serially diluted from 0.0125 to 0.2 mM. The amino acids were loaded to the sensor chip using single-cycle kinetics, i.e. after the injection of five amino acid dilutions the chip was regenerated with EDTA. Subsequently, the chip was re-loaded with Ni^2+ and His-Tlp3 before the injection of the next amino acid to be tested. A 10 min dissociation time was allowed after the addition of each analyte. SPR signals were analyzed using the Biacore Evaluation software to determine KD.

[3] = test system: recombinant Tlp3 periplasmic sensory domain peptide; test: Amino acid and small molecule array binding assay; parameters: species or system Campylobacter jejuni; key: Y: positive binding significantly above background; N: binding not significantly above background; settings: compounds covalently bound to an epoxide group
Experimental: as §1, §2

[4] = test system: C. jejuni 11168-O; type: cell-based, Campylobacter jejuni; settings: for Chemotactic response: nutrient depleted chemotaxis assay, 11168-O vs Δtlp3; for Chemotactic response: key: +: positive response (chemoattractant); −: negative response (chemorepellent)
[5] = test system: C. jejuni 11168-O Δtlp3; type: cell-based, Campylobacter jejuni; settings: for Increase in bacterial numbers around ligand plug, Δtlp3 compared to wild type: repellents; for Viable counts of C. jejuni associated with ligand plug: Δtlp3, plug with 2 mM ligand, 37°C, 4 h; for Reduction in bacterial numbers migrating towards ligand, Δtlp3 compared to wild type: attractants
[6] = target: His-Tlp3 (Campylobacter jejuni, UniProt Q0P864); test: biochemical; type: binding; settings: for SPR interaction with Tlp3 (in words): two-fold serial dilution between 12.5 and 200 µM
Experimental: as §2
All interactions present were tested with a two-fold serial dilution between 12.5 and 200 µM. (TIF) Click here for additional data file.

[7] = wild type 11168-O, plug with 2 mM ligand, 37°C, 4 h
[8] = Binding Affinity (KD), SPR, 25°C, 1× PBS pH 7.2

Sequence of His-Tlp3 (Q0P864 entry or part of it): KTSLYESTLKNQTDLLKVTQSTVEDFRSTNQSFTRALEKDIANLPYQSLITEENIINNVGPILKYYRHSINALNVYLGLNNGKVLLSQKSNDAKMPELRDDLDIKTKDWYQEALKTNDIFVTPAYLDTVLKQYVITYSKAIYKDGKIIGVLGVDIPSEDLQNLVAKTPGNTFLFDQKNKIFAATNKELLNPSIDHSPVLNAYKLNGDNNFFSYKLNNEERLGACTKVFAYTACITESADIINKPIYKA

SMILES | STD-NMR binding to Tlp3 (in words) ([1]; 283 K) | Plate assay [2] | Array binding [3] | Chemotactic response [4] | Viable counts of C. jejuni associated with ligand plug [4, 7] | Increase in bacterial numbers around ligand plug, Δtlp3 compared to wild type [5] | Viable counts of C. jejuni associated with ligand plug [5] | Reduction in bacterial numbers migrating towards ligand, Δtlp3 compared to wild type [5] | Kd [6, 8] | further results
N=C(N)NCCC[C@H](N)C(=O)O [Arginine] | Binding was observed | Y | N | − | 1.3 × 10^6 cfu/ml | 1 log | 6.8 × 10^7 cfu/ml |  |  | Binding preference in competition STD experiments [1]: preferential binding of arginine over lysine
N[C@@H](CC(=O)O)C(=O)O [Aspartate] |  | Y | N | + | 7.8 × 10^6 cfu/ml |  | 3.7 × 10^3 cfu/ml | 3 log |  | 
O=C(O)/C=C/C(=O)O [Fumaric Acid] |  | Y |  | + | 4.14 × 10^6 cfu/ml |  | 9 × 10^2 cfu/ml | 4 log |  | Kd [6]: > 10000 µM
N[C@H]1C(O)O[C@H](CO)[C@@H](O)[C@@H]1O (stereo partly shown) [Glucosamine] | No signals were detected | Y |  | − | 1.68 × 10^3 cfu/ml | 3 log | 7.8 × 10^6 cfu/ml |  | 7.77 µM | Dissociation rate from Tlp3 (in words) ([6]; SPR): slow disassociation rates
CC[C@H](C)[C@H](N)C(=O)O [Isoleucine] | Binding was observed | Y | Y | + | 6 × 10^6 cfu/ml |  | 3.6 × 10^2 cfu/ml | 4 log |  | Binding preference in competition STD experiments [1]: binds preferentially over arginine; also recorded: binds preferentially over lysine
NCCCC[C@H](N)C(=O)O [Lysine] | Binding was observed | Y | N | − | 2.2 × 10^3 cfu/ml | 2 log | 2.4 × 10^5 cfu/ml |  | ~2.8 µM and 2.8 µM | Binding affinity of lysine relative to arginine, fold stronger ([6]; ratio of SPR KD values): ~14 fold
O=C(O)CC(O)C(=O)O (stereo not shown) [Malic Acid] | No signals were detected | Y |  | + | 9 × 10^5 cfu/ml |  | 1.13 × 10^3 cfu/ml | 2 log |  | Dissociation rate from Tlp3 (in words) ([6]; SPR): slow disassociation rates
c1ncc2nc[nH]c2n1 [Purine] | Binding was observed | Y |  | + | 1.4 × 10^6 cfu/ml |  | 1.08 × 10^5 cfu/ml | 1 log | 38.3 µM | STD effect of H2 protons, fold lesser than H6 ([1]; pyrimidine ring protons, 283 K): ~5 fold; Binding preference in competition STD experiments [1]: binds preferentially over lysine; also recorded: binds preferentially over arginine
O=C(O)CCC(=O)O [Succinic Acid] |  | Y |  | − |  | 1 log | 2 × 10^7 cfu/ml |  | 33.2 µM | Viable counts of C. jejuni associated with ligand plug [4]: 1.5 × 10^6 cfu/ml
Cc1ncc(C[n+]2csc(CCO)c2C)c(N)n1 [Thiamine] |  | Y |  | − |  | 1 log | 9 × 10^6 cfu/ml |  | < 50 µM | Viable counts of C. jejuni associated with ligand plug [4]: 4 × 10^5 cfu/ml
C[C@H](N)C(=O)O [alanine] |  |  |  |  |  |  |  |  |  | SPR interaction with Tlp3 (in words) [6]: No interaction observed
NC(=O)C[C@H](N)C(=O)O [asparagine] |  |  |  |  |  |  |  |  |  | SPR interaction with Tlp3 (in words) [6]: No interaction observed
O=C(O)CCC(=O)C(=O)O [α-ketoglutarate] |  | Y | Y |  |  |  |  |  |  | Chemotaxis assay outcome (in words) ([4]; data not shown): not definitive; Kd ([6]; SPR, 25°C, 1× PBS pH 7.2, read-out: Binding Affinity (KD)): 296 µM
